Tested on: transaldolase (Taizhou Lingfeng Biotechnology Co., Ltd., LF145)
Assay: Effect of acetaldehyde on the activity of transaldolase
Assay type: biochemical
Settings: reaction 10 min, 35° C., HPLC, without acetaldehyde 3.31 g/L
Description: In a 50 mL round-bottom flask, 10 mL of a reaction system contained 14 g/L p-methylsulfonylbenzaldehyde, 10.5 g/L threonine, 1 g/L pyridoxal phosphate, and 1 mL of transaldolase (Taizhou Lingfeng Biotechnology Co., Ltd., LF145), different concentrations (0, 1 g/L, 5 g/L, 10 g/L, and 20 g/L) of acetaldehyde were respectively prepared, the mixture was shaken in a water bath at 35° C. for 10 min, and the content of D-acid produced was detected by HPLC.

CC=O [acetaldehyde] was tested, and the “(2S,3R)-p-methylsulfonylphenylserine produced” value (1 g/L acetaldehyde added) was 1.76 g/L, the “(2S,3R)-p-methylsulfonylphenylserine produced” value (5 g/L acetaldehyde added) was 0.66 g/L and the “(2S,3R)-p-methylsulfonylphenylserine produced” value (10 g/L acetaldehyde added) was 0.303 g/L. For the same compound, the “(2S,3R)-p-methylsulfonylphenylserine produced” value (20 g/L acetaldehyde added) was 0.153 g/L.

— US20250059574A1, “METHODS FOR PREPARING (2S,3R)-P-METHYLSULFONYLPHENYLSERINE” (TAIZHOU UNIVERSITY, priority 2023, published 2025)
